{"source": "patent US11116771B2", "about": "“G protein-coupled receptor (GPCR) modulation by imipridones” (Oncoceutics, Inc., priority 2016, dated 2021)", "key": {"[1]": {"biological_target": "DRD2 alanine-scan mutation library (Homo sapiens, UniProt P14416, L81A)", "sequence (P14416 whole entry L81A)": "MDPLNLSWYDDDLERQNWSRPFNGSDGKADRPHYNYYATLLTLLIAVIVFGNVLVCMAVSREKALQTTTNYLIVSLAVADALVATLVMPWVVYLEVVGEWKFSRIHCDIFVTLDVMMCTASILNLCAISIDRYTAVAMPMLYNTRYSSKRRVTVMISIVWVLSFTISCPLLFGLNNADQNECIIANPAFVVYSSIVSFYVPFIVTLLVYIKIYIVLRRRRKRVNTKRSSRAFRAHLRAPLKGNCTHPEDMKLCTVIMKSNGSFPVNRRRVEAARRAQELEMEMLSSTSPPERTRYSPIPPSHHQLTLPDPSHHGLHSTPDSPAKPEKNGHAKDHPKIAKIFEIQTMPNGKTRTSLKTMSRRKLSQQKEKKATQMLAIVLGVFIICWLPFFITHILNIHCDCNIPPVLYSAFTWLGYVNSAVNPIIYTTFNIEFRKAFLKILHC"}, "[2]": {"biological_target": "DRD2 alanine-scan mutation library (Homo sapiens, UniProt P14416, I394A)", "sequence (P14416 whole entry I394A)": "as the sequence (P14416 whole entry L81A) above, with A81L, I394A counted along it"}, "[3]": {"biological_target": "DRD2 alanine-scan mutation library (Homo sapiens, UniProt P14416, F198A)", "sequence (P14416 whole entry F198A)": "as the sequence (P14416 whole entry L81A) above, with A81L, F198A counted along it"}, "[4]": {"biological_target": "DRD2 alanine-scan mutation library (Homo sapiens, UniProt P14416, I184A)", "sequence (P14416 whole entry I184A)": "as the sequence (P14416 whole entry L81A) above, with A81L, I184A counted along it"}, "[5]": {"biological_target": "DRD2 alanine-scan mutation library (Homo sapiens, UniProt P14416, S121A)", "sequence (P14416 whole entry S121A)": "as the sequence (P14416 whole entry L81A) above, with A81L, S121A counted along it"}, "[6]": {"biological_target": "DRD2 alanine-scan mutation library (Homo sapiens, UniProt P14416, T165A)", "sequence (P14416 whole entry T165A)": "as the sequence (P14416 whole entry L81A) above, with A81L, T165A counted along it"}, "[7]": {"biological_target": "DRD2 alanine-scan mutation library (Homo sapiens, UniProt P14416, T205A)", "sequence (P14416 whole entry T205A)": "as the sequence (P14416 whole entry L81A) above, with A81L, T205A counted along it"}, "[8]": {"biological_target": "DRD2 alanine-scan mutation library (Homo sapiens, UniProt P14416, S193A)", "sequence (P14416 whole entry S193A)": "as the sequence (P14416 whole entry L81A) above, with A81L, S193A counted along it"}, "[9]": {"biological_target": "DRD2 alanine-scan mutation library (Homo sapiens, UniProt P14416, R132A)", "sequence (P14416 whole entry R132A)": "as the sequence (P14416 whole entry L81A) above, with A81L, R132A counted along it"}, "[10]": {"biological_target": "DRD2 alanine-scan mutation library (Homo sapiens, UniProt P14416, S419A)", "sequence (P14416 whole entry S419A)": "as the sequence (P14416 whole entry L81A) above, with A81L, S419A counted along it"}, "[11]": {"biological_target": "DRD2 alanine-scan mutation library (Homo sapiens, UniProt P14416, W386A)", "sequence (P14416 whole entry W386A)": "as the sequence (P14416 whole entry L81A) above, with A81L, W386A counted along it"}, "[12]": {"biological_target": "DRD2 alanine-scan mutation library (Homo sapiens, UniProt P14416, E248A)", "sequence (P14416 whole entry E248A)": "as the sequence (P14416 whole entry L81A) above, with A81L, E248A counted along it"}, "[13]": {"biological_target": "DRD2 alanine-scan mutation library (Homo sapiens, UniProt P14416, S7A)", "sequence (P14416 whole entry S7A)": "as the sequence (P14416 whole entry L81A) above, with S7A, A81L counted along it"}, "[14]": {"biological_target": "DRD2 alanine-scan mutation library (Homo sapiens, UniProt P14416, H393A)", "sequence (P14416 whole entry H393A)": "as the sequence (P14416 whole entry L81A) above, with A81L, H393A counted along it"}, "[15]": {"biological_target": "DRD2 alanine-scan mutation library (Homo sapiens, UniProt P14416, C107A)", "sequence (P14416 whole entry C107A)": "as the sequence (P14416 whole entry L81A) above, with A81L, C107A counted along it"}, "[16]": {"biological_target": "DRD2 alanine-scan mutation library (Homo sapiens, UniProt P14416, L125A)", "sequence (P14416 whole entry L125A)": "as the sequence (P14416 whole entry L81A) above, with A81L, L125A counted along it"}, "[17]": {"biological_target": "DRD2 alanine-scan mutation library (Homo sapiens, UniProt P14416, T119A)", "sequence (P14416 whole entry T119A)": "as the sequence (P14416 whole entry L81A) above, with A81L, T119A counted along it"}, "[18]": {"biological_target": "DRD2 alanine-scan mutation library (Homo sapiens, UniProt P14416, V91A)", "sequence (P14416 whole entry V91A)": "as the sequence (P14416 whole entry L81A) above, with A81L, V91A counted along it"}, "[19]": {"biological_target": "DRD2 alanine-scan mutation library (Homo sapiens, UniProt P14416, F189A)", "sequence (P14416 whole entry F189A)": "as the sequence (P14416 whole entry L81A) above, with A81L, F189A counted along it"}, "[20]": {"biological_target": "DRD2 alanine-scan mutation library (Homo sapiens, UniProt P14416, S197A)", "sequence (P14416 whole entry S197A)": "as the sequence (P14416 whole entry L81A) above, with A81L, S197A counted along it"}, "[21]": {"biological_target": "DRD2 alanine-scan mutation library (Homo sapiens, UniProt P14416, A177S)", "sequence (P14416 whole entry A177S)": "as the sequence (P14416 whole entry L81A) above, with A81L, A177S counted along it"}, "[22]": {"biological_target": "DRD2 alanine-scan mutation library (Homo sapiens, UniProt P14416, V190A)", "sequence (P14416 whole entry V190A)": "as the sequence (P14416 whole entry L81A) above, with A81L, V190A counted along it"}, "[23]": {"biological_target": "DRD2 alanine-scan mutation library (Homo sapiens, UniProt P14416, Y199A)", "sequence (P14416 whole entry Y199A)": "as the sequence (P14416 whole entry L81A) above, with A81L, Y199A counted along it"}, "[24]": {"biological_target": "DRD2 alanine-scan mutation library (Homo sapiens, UniProt P14416, I122A)", "sequence (P14416 whole entry I122A)": "as the sequence (P14416 whole entry L81A) above, with A81L, I122A counted along it"}, "[25]": {"biological_target": "DRD2 alanine-scan mutation library (Homo sapiens, UniProt P14416, D80A)", "sequence (P14416 whole entry D80A)": "as the sequence (P14416 whole entry L81A) above, with D80A, A81L counted along it"}, "[26]": {"biological_target": "DRD2 alanine-scan mutation library (Homo sapiens, UniProt P14416, I128A)", "sequence (P14416 whole entry I128A)": "as the sequence (P14416 whole entry L81A) above, with A81L, I128A counted along it"}, "[27]": {"biological_target": "DRD2 alanine-scan mutation library (Homo sapiens, UniProt P14416, I377A)", "sequence (P14416 whole entry I377A)": "as the sequence (P14416 whole entry L81A) above, with A81L, I377A counted along it"}, "[28]": {"biological_target": "DRD2 alanine-scan mutation library (Homo sapiens, UniProt P14416, Y416A)", "sequence (P14416 whole entry Y416A)": "as the sequence (P14416 whole entry L81A) above, with A81L, Y416A counted along it"}, "[29]": {"biological_target": "DRD2 alanine-scan mutation library (Homo sapiens, UniProt P14416, D114A)", "sequence (P14416 whole entry D114A)": "as the sequence (P14416 whole entry L81A) above, with A81L, D114A counted along it"}, "[30]": {"biological_target": "DRD2 alanine-scan mutation library (Homo sapiens, UniProt P14416, C118A)", "sequence (P14416 whole entry C118A)": "as the sequence (P14416 whole entry L81A) above, with A81L, C118A counted along it"}, "[31]": {"biological_target": "DRD2 alanine-scan mutation library (Homo sapiens, UniProt P14416, V196A)", "sequence (P14416 whole entry V196A)": "as the sequence (P14416 whole entry L81A) above, with A81L, V196A counted along it"}, "[32]": {"biological_target": "DRD2 alanine-scan mutation library (Homo sapiens, UniProt P14416, C182A)", "sequence (P14416 whole entry C182A)": "as the sequence (P14416 whole entry L81A) above, with A81L, C182A counted along it"}, "[33]": {"biological_target": "DRD2 alanine-scan mutation library (Homo sapiens, UniProt P14416, Y192A)", "sequence (P14416 whole entry Y192A)": "as the sequence (P14416 whole entry L81A) above, with A81L, Y192A counted along it"}, "[34]": {"biological_target": "DRD2 alanine-scan mutation library (Homo sapiens, UniProt P14416, E95A)", "sequence (P14416 whole entry E95A)": "as the sequence (P14416 whole entry L81A) above, with A81L, E95A counted along it"}, "[35]": {"biological_target": "DRD2 alanine-scan mutation library (Homo sapiens, UniProt P14416, V83A)", "sequence (P14416 whole entry V83A)": "as the sequence (P14416 whole entry L81A) above, with A81L, V83A counted along it"}, "[36]": {"biological_target": "DRD2 alanine-scan mutation library (Homo sapiens, UniProt P14416, I397A)", "sequence (P14416 whole entry I397A)": "as the sequence (P14416 whole entry L81A) above, with A81L, I397A counted along it"}, "[37]": {"biological_target": "DRD2 alanine-scan mutation library (Homo sapiens, UniProt P14416, N23A)", "sequence (P14416 whole entry N23A)": "as the sequence (P14416 whole entry L81A) above, with N23A, A81L counted along it"}, "[38]": {"tested_on": "Pseudomonas aeruginosa ATCC# 9027", "settings": "1:300 with TSB Mod Dilution; inoculum count 28"}, "[39]": {"tested_on": "Aspergillus brasiliensis ATCC# 16404", "settings": "1:300 with TSB Mod Dilution"}, "[40]": {"tested_on": "Candida albicans ATCC# 10231", "settings": "1:300 with TSB Mod Dilution"}, "[41]": {"tested_on": "Bacillus subtilis ATCC# 6633", "settings": "1:300 with TSB Mod Dilution; inoculum count 52"}, "[42]": {"tested_on": "Staphylococcus aureus ATCC# 6538"}}, "note": "Counter-ions that a name gives are not always drawn."}
{"smiles": "NCCc1ccc(O)c(O)c1", "note": "[Dopamine, dopamine]", "values": [{"measurement": "Calcium Flux as a % of flux with WT DRD2 (100), Dopamine 1 nM", "setting": "[1]", "result": 83, "unit": "%"}, {"measurement": "Calcium Flux % WT", "setting": "[2]", "result": 16, "unit": "% WT"}, {"measurement": "Calcium Flux % WT", "setting": "[3]", "result": 10, "unit": "% WT"}, {"measurement": "Calcium Flux % WT", "setting": "[4]", "result": 0, "unit": "% WT"}, {"measurement": "Calcium Flux % WT", "setting": "[5]", "result": 16, "unit": "% WT"}, {"measurement": "Calcium Flux as a % of flux with WT DRD2 (100), Dopamine 1 nM", "setting": "[6]", "result": 92, "unit": "%"}, {"measurement": "Calcium Flux % WT", "setting": "[7]", "result": 24, "unit": "% WT"}, {"measurement": "Calcium Flux % WT", "setting": "[8]", "result": 1, "unit": "% WT"}, {"measurement": "Calcium Flux % WT", "setting": "[9]", "result": 3, "unit": "% WT"}, {"measurement": "Calcium Flux % WT", "setting": "[10]", "result": 20, "unit": "% WT"}, {"measurement": "Calcium Flux % WT", "setting": "[11]", "result": 15, "unit": "% WT"}, {"measurement": "Calcium Flux % WT", "setting": "[12]", "result": 19, "unit": "% WT"}, {"measurement": "Calcium Flux % WT", "setting": "[13]", "result": 15, "unit": "% WT"}, {"measurement": "Calcium Flux % WT", "setting": "[14]", "result": 4, "unit": "% WT"}, {"measurement": "Calcium Flux % WT", "setting": "[15]", "result": 20, "unit": "% WT"}, {"measurement": "Calcium Flux % WT", "setting": "[16]", "result": 25, "unit": "% WT"}, {"measurement": "Calcium Flux % WT", "setting": "[17]", "result": 1, "unit": "% WT"}, {"measurement": "Calcium Flux as a % of flux with WT DRD2 (100), Dopamine 1 nM", "setting": "[18]", "result": 119, "unit": "%"}, {"measurement": "Calcium Flux % WT", "setting": "[19]", "result": 22, "unit": "% WT"}, {"measurement": "Calcium Flux % WT", "setting": "[20]", "result": 0, "unit": "% WT"}, {"measurement": "Calcium Flux as a % of flux with WT DRD2 (100), Dopamine 1 nM", "setting": "[21]", "result": 85, "unit": "%"}, {"measurement": "Calcium Flux % WT", "setting": "[22]", "result": 20, "unit": "% WT"}, {"measurement": "Calcium Flux % WT", "setting": "[23]", "result": 20, "unit": "% WT"}, {"measurement": "Calcium Flux % WT", "setting": "[24]", "result": 23, "unit": "% WT"}, {"measurement": "Calcium Flux % WT", "setting": "[25]", "result": 3, "unit": "% WT"}, {"measurement": "Calcium Flux % WT", "setting": "[26]", "result": 27, "unit": "% WT"}, {"measurement": "Calcium Flux % WT", "setting": "[27]", "result": 11, "unit": "% WT"}, {"measurement": "Calcium Flux % WT", "setting": "[28]", "result": 12, "unit": "% WT"}, {"measurement": "Calcium Flux % WT", "setting": "[29]", "result": 4, "unit": "% WT"}, {"measurement": "Calcium Flux % WT", "setting": "[30]", "result": 14, "unit": "% WT"}, {"measurement": "Calcium Flux as a % of flux with WT DRD2 (100), Dopamine 1 nM", "setting": "[31]", "result": 119, "unit": "%"}, {"measurement": "Calcium Flux % WT", "setting": "[32]", "result": 0, "unit": "% WT"}, {"measurement": "Calcium Flux as a % of flux with WT DRD2 (100), Dopamine 1 nM", "setting": "[33]", "result": 64, "unit": "%"}, {"measurement": "Calcium Flux as a % of flux with WT DRD2 (100), Dopamine 1 nM", "setting": "[34]", "result": 123, "unit": "%"}, {"measurement": "Calcium Flux % WT", "setting": "[35]", "result": 10, "unit": "% WT"}, {"measurement": "Calcium Flux as a % of flux with WT DRD2 (100), Dopamine 1 nM", "setting": "[36]", "result": 105, "unit": "%"}, {"measurement": "Calcium Flux % WT", "setting": "[37]", "result": 25, "unit": "% WT"}]}
{"smiles": "Cc1ccccc1CN1C(=O)C2=C(CCN(Cc3ccccc3)C2)N2CCN=C12", "note": "[ONC201 dihydrochloride]", "values": [{"measurement": "Indicator Organisms Count, Pa", "setting": "[38]", "result": 24}, {"measurement": "Indicator Organisms Count, Ab (SDA)", "setting": "[39]; inoculum count 20", "result": 19}, {"measurement": "Indicator Organisms Count, Ab (TSA)", "setting": "[39]; inoculum count 21", "result": 18}, {"measurement": "Indicator Organisms Count, Ca (TSA)", "setting": "[40]; inoculum count 48", "result": 51}, {"measurement": "Indicator Organisms Count, CA (SDA)", "setting": "[40]; inoculum count 52", "result": 46}, {"measurement": "Indicator Organisms Count, Bs", "setting": "[41]", "result": 48}, {"measurement": "Indicator Organisms Count, Sa", "setting": "[42]", "result": 0}]}
